Assay results reported in US9328099B2, “Cyanomethylpyrazole carboxamides as janus kinase inhibitors” (Merck Sharp & Dohme Corp., priority 2011, dated 2016).

molecular target: JAK1 (Homo sapiens (Human), UniProt P23458); experiment: Jak Biochemical HTRF Assay, JAK1; conditions: HTRF biochemical assay, GST-tagged catalytic domain; top concentration tested […]; read-out: JAK1 IC50
Description: Jak Biochemical HTRF Assay Protocol
Subsequent reagent additions employed an Agilent Bravo.

Chain of JAK1 (P23458 875-1153): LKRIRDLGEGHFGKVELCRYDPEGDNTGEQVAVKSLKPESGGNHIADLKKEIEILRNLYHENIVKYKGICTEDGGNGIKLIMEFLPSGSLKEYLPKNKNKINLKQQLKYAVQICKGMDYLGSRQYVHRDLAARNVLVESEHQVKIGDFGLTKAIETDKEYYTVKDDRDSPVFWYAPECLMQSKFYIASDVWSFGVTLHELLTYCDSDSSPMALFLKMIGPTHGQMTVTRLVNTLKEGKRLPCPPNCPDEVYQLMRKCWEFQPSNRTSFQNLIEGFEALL

Row | SMILES | IC50
1 | CC(F)(F)C(=O)N1CC[C@@](CC#N)(n2cc(C(N)=O)c(Nc3ccc(F)nc3)n2)[C@@H](F)C1 (single isomer, unassigned) [Example 43-4, 1-((3R,4R or 3S,4S)-4-(cyanomethyl)-1-(2,2-difluoropropanoyl)-3-fluoropiperidin-4-yl)-3-((6-fluoropyridin-3-yl)amino)-1H-pyrazole-4-carboxamide] | 0.05 nM
2 | N#CCC1(n2cc(C(N)=O)c(Nc3ccnc(F)c3)n2)CCN(C(=O)OC2CCOC2)CC1 (single isomer, unassigned) [Example 49-1, (3S or 3R)-tetrahydrofuran-3-yl 4-{4-carbamoyl-3-[(2-fluoropyridin-4-yl)amino]-1H-pyrazol-1-yl}-4-(cyanomethyl)piperidine-1-carboxylate] | 0.6 nM
3 | N#CCC1(n2cc(C(N)=O)c(Nc3ccc(F)cc3)n2)CCN(c2cncc3ccccc23)CC1 [Example 3-2, 1-[4-(cyanomethyl)-1-isoquinolin-4-ylpiperidin-4-yl]-3-[(4-fluorophenyl)amino]-1H-pyrazole-4-carboxamide] | 6 nM
4 | CC(C)(O)c1cccc(N2CCC(CC#N)(n3cc(C(N)=O)c(Nc4ccc(F)cc4)n3)CC2)n1 [Example 3-7, 1-{4-(cyanomethyl)-1-[6-(1-hydroxy-1-methylethyl)pyridin-2-yl]piperidin-4-yl}-3-[(4-fluorophenyl)amino]-1H-pyrazole-4-carboxamide] | 0.3 nM
5 | N#CCC1(n2cc(C(N)=O)c(Nc3ccc(F)cc3)n2)CCN(c2cccc(F)c2)CC1 [Example 3-27, 1-[4-(cyanomethyl)-1-(3-fluorophenyl)piperidin-4-yl]-3-[(4-fluorophenyl)amino]-1H-pyrazole-4-carboxamide] | 1 nM
6 | N#CCC1(n2cc(C(N)=O)c(Nc3ccc(F)cc3)n2)CCSCC1 [Example 7, 1-(4-(Cyanomethyl)tetrahydro-2H-thiopyran-4-yl)-3-((4-fluorophenyl)amino)-1H-pyrazole-4-carboxamide] | 8 nM
7 | CC(C)(C)OC(=O)N1CCC(CC#N)(n2cc(C(N)=O)c(Nc3ccc(S(=O)(=O)C(F)(F)F)cc3)n2)CC1 [Example 9-15, tert-butyl 4-[4-carbamoyl-3-({4-[(trifluoromethyl)sulfonyl]phenyl}amino)-1H-pyrazol-1-yl]-4-(cyanomethyl)piperidine-1-carboxylate] | 2 nM
8 | COc1cc(Nc2nn(C3(CC#N)CCN(C(=O)OC(C)(C)C)CC3)cc2C(N)=O)ccn1 [Example 9-19, tert-butyl 4-{4-carbamoyl-3-[(2-methoxypyridin-4-yl)amino]-1H-pyrazol-1-yl}-4-(cyanomethyl)piperidine-1-carboxylate] | 6 nM
9 | N#CCC1(n2cc(C(N)=O)c(Nc3ccc(C4CC4)nc3)n2)CCN(C(=O)OCC(F)F)CC1 [Example 9-40, 2,2-difluoroethyl 4-{4-carbamoyl-3-[(6-cyclopropylpyridin-3-yl)amino]-1H-pyrazol-1-yl}-4-(cyanomethyl)piperidine-1-carboxylate] | 0.7 nM
10 | CC(C)(C)OC(=O)N1CCC(CC#N)(n2cc(C(N)=O)c(Nc3cccc(Br)c3)n2)CC1 [Example 12-1, tert-Butyl 4-{3-[(3-bromophenyl)amino]-4-carbamoyl-1H-pyrazol-1-yl}-4-(cyanomethyl)piperidine-1-carboxylate] | 1 nM
11 | COc1cccc(Nc2nn(C3(CC#N)CCN(C(=O)OC(C)(C)C)CC3)cc2C(N)=O)n1 [Example 13-9, tert-butyl 4-(4-carbamoyl-3-(6-methoxypyridin-2-ylamino)-1H-pyrazol-1-yl)-4-(cyanomethyl)piperidine-1-carboxylate] | 10 nM
12 | N#CCC1(n2cc(C(N)=O)c(Nc3ccccc3)n2)CCN(Cc2cccc(C#N)c2)CC1 [Example 21-3, 1-[1-(3-cyanobenzyl)-4-(cyanomethyl)piperidin-4-yl]-3-(phenylamino)-1H-pyrazole-4-carboxamide] | 79 nM
13 | COc1ccccc1CN1CCC(CC#N)(n2cc(C(N)=O)c(Nc3ccnc(F)c3)n2)CC1 [Example 22-66, 1-[4-(cyanomethyl)-1-(2-methoxybenzyl)piperidin-4-yl]-3-[(2-fluoropyridin-4-yl)amino]-1H-pyrazole-4-carboxamide] | 2 nM
14 | N#CCC1(n2cc(C(N)=O)c(Nc3ccnc(F)c3)n2)CCN(C(=O)OC2CCOC2)CC1 (stereo not shown) [Example 30-16, tetrahydrofuran-3-yl 4-{4-carbamoyl-3-[(2-fluoropyridin-4-yl)amino]-1H-pyrazol-1-yl}-4-(cyanomethyl)piperidine-1-carboxylate] | 0.9 nM
15 | N#CCC1(n2cc(C(N)=O)c(Nc3ccc(S(=O)(=O)C(F)(F)F)cc3)n2)CCN(C(=O)OC2COC2)CC1 [Example 30-26, oxetan-3-yl 4-(4-carbamoyl-3-(4-(trifluoromethylsulfonyl)phenylamino)-1H-pyrazol-1-yl)-4-(cyanomethyl)piperidine-1-carboxylate] | 0.2 nM
16 | N#CCC1(n2cc(C(N)=O)c(Nc3ccccc3)n2)CCN(C(=O)OCCN2CCOCC2)CC1 [Example 30-41, 2-morpholin-4-ylethyl 4-[4-carbamoyl-3-(phenylamino)-1H-pyrazol-1-yl]-4-(cyanomethyl)piperidine-1-carboxylate] | 31 nM

More lines, now with the values ahead:

Row | IC50 | SMILES
17 | 0.9 nM | CC(F)(F)C(=O)N1CC[C@](CC#N)(n2cc(C(N)=O)c(Nc3ccc(F)nc3)n2)[C@H](F)C1 (single isomer, unassigned) [Example 43-3, 1-((3R,4R or 3S,4S)-4-(cyanomethyl)-1-(2,2-difluoropropanoyl)-3-fluoropiperidin-4-yl)-3-((6-fluoropyridin-3-yl)amino)-1H-pyrazole-4-carboxamide]
18 | 0.4 nM | N#CCC1(n2cc(C(N)=O)c(Nc3ccnc(F)c3)n2)CCN(C(=O)OC2CCOC2)CC1 (single isomer, unassigned) [Example 49-2, (3S or 3R)-tetrahydrofuran-3-yl 4-{4-carbamoyl-3-[(2-fluoropyridin-4-yl)amino]-1H-pyrazol-1-yl}-4-(cyanomethyl)piperidine-1-carboxylate]
19 | 3 nM | CC(C)(C)OC(=O)C1CCC(CC#N)(n2cc(C(N)=O)c(Nc3ccccc3)n2)CC1 (stereo not shown) [Example 2-18, tert-butyl 4-[4-carbamoyl-3-(phenylamino)-1H-pyrazol-1-yl]-4-(cyanomethyl) cyclohexanecarboxylate]
20 | 5 nM | Cc1cccc(N2CCC(CC#N)(n3cc(C(N)=O)c(Nc4ccc(F)cc4)n3)CC2)n1 [Example 3-20, 1-[4-(cyanomethyl)-1-(6-methylpyridin-2-yl)piperidin-4-yl]-3-[(4-fluorophenyl)amino]-1H-pyrazole-4-carboxamide]
21 | 0.4 nM | N#CCC1(n2cc(C(N)=O)c(Nc3ccc(F)cc3)n2)CCN(c2ccc(F)nc2)CC1 [Example 3-22, 1-[4-(cyanomethyl)-1-(6-fluoropyridin-3-yl)piperidin-4-yl]-3-[(4-fluorophenyl)amino]-1H-pyrazole-4-carboxamide]
22 | 0.1 nM | N#CCC1(n2cc(C(N)=O)c(Nc3ccc(F)cc3)n2)CCN(c2cncnc2)CC1 [Example 3-24, 1-[4-(cyanomethyl)-1-pyrimidin-5-ylpiperidin-4-yl]-3-[(4-fluorophenyl)amino]-1H-pyrazole-4-carboxamide]
23 | 22 nM | CS(=O)(=O)c1ccc(Nc2nn(C3(CC#N)CCOCC3)cc2C(N)=O)cc1 [Example 4-5, 1-[4-(cyanomethyl)tetrahydro-2H-pyran-4-yl]-3-{[4-(methylsulfonyl)phenyl]amino}-1H-pyrazole-4-carboxamide]
24 | 0.4 nM | CC(C)(C)OC(=O)N1CCC(CC#N)(n2cc(C(N)=O)c(Nc3ccnc(C(F)(F)F)c3)n2)CC1 [Example 9-23, tert-butyl 4-(4-carbamoyl-3-{[2-(trifluoromethyl)pyridin-4-yl]amino}-1H-pyrazol-1-yl)-4-(cyanomethyl)piperidine-1-carboxylate]
25 | 0.4 nM | CC(C)(C)OC(=O)N1CCC(CC#N)(n2cc(C(N)=O)c(Nc3ccnc(C(N)=O)c3)n2)CC1 [Example 9-27, tert-butyl 4-{4-carbamoyl-3-[(2-carbamoylpyridin-4-yl)amino]-1H-pyrazol-1-yl}-4-(cyanomethyl)piperidine-1-carboxylate]
26 | 0.2 nM | N#CCC1(n2cc(C(N)=O)c(Nc3ccc(OC4CCC4)nc3)n2)CCN(C(=O)OCC(F)F)CC1 [Example 9-37, 2,2-difluoroethyl 4-(4-carbamoyl-3-{[6-(cyclobutyloxy)pyridin-3-yl]amino}-1H-pyrazol-1-yl)-4-(cyanomethyl)piperidine-1-carboxylate]
27 | 0.1 nM | CC(C)(O)c1ccc(Nc2nn(C3(CC#N)CCN(C(=O)OCC(F)(F)F)CC3)cc2C(N)=O)cn1 [Example 10-1, 2,2,2-Trifluoroethyl 4-(4-carbamoyl-3-(6-(2-hydroxypropan-2-yl)pyridin-3-ylamino)-1H-pyrazol-1-yl)-4-(cyanomethyl)piperidine-1-carboxylate]
28 | 10 nM | N#CCC1(n2cc(C(N)=O)c(Nc3ccccc3)n2)CCN(Cc2cc3ccccc3o2)CC1 [Example 21-20, 1-[1-(1-benzofuran-2-ylmethyl)-4-(cyanomethyl)piperidin-4-yl]-3-(phenylamino)-1H-pyrazole-4-carboxamide]
29 | 4 nM | N#CCC1(n2cc(C(N)=O)c(Nc3ccnc(F)c3)n2)CCN(CCc2ccccc2)CC1 [Example 22-64, 1-[4-(cyanomethyl)-1-(2-phenylethyl)piperidin-4-yl]-3-[(2-fluoropyridin-4-yl)amino]-1H-pyrazole-4-carboxamide]
30 | 0.1 nM | N#CCC1(n2cc(C(N)=O)c(Nc3ccnc(F)c3)n2)CCN(Cc2ccc(O)nc2)CC1 [Example 22-68, 1-{4-(cyanomethyl)-1-[(6-hydroxypyridin-3-yl)methyl]piperidin-4-yl}-3-[(2-fluoropyridin-4-yl)amino]-1H-pyrazole-4-carboxamide]
31 | 6 nM | CC(OC(=O)N1CCC(CC#N)(n2cc(C(N)=O)c(Nc3ccc(F)cc3)n2)CC1)C1CC1 (stereo not shown) [Example 30-12, 1-cyclopropylethyl 4-(4-carbamoyl-3-(4-fluorophenylamino)-1H-pyrazol-1-yl)-4-(cyanomethyl)piperidine-1-carboxylate]
